Tests used:
Assay in all cases: MTT cell proliferation, tumor cell lines
Format in all cases: cell-based
[1] = test system: SK-MEL 28; conditions: Homo sapiens, SK-MEL 28, Melanoma, 96 hrs
Procedure: (§1) Culture conditions: The cell lines listed in Table 4 were used to characterize the cytotoxicity of ECO-04601 against human and animal tumor cell lines. […] Cells were passaged twice to three times per week. Viability was examined by staining with 0.25% trypan blue and only flasks where cell viability was >95% were used for this study. Cell lines amplification and plating: Tumor cells were seeded (1–3×10^3 cells per 100 μL) in 96-wells flat bottom microtiter plates and incubated at 37° C. and 5% CO2 for 16 hrs before treatment in drug-free medium supplemented with 10% serum. Evaluation of inhibitory activity on cell proliferation: Cells were incubated for 96 hrs with 6 log10-fold concentrations of the test substance starting at 10 μg/ml (20 μM). The test substance stock solution (5 mg/mL) was initially diluted at […] in medium supplemented with serum. Other concentrations were then obtained from 1/10 fold successive dilutions in the same supplemented medium. Cell survival was evaluated 96 h later by replacing the culture media with 150 μL fresh medium containing 10 mM 4-(2-hydroxyethyl)-1-piperazineethanesulfonic acid buffer, pH 7.4. Next, 50 μL of 2.5 mg/mL of 3-(4,5-dimethylthiazo-2-yl)-2,5-diphenyltetrazolium bromide (MTT) in phosphate buffer solution, pH 7.4, was added. After 3–4 h of incubation at 37° C., the medium and soluble MTT was removed, and 200 μL of dimethylsulfoxide was added to dissolve the precipitate of reduced MTT followed by addition of 25 μL glycine buffer (0.1 M glycine plus 0.1 M NaCl, pH 10.5). The absorbance was determined at 570 nm with a microplate reader.

[2] = test system: I83; conditions: Homo sapiens, I83, Leukemia, 96 hrs
Procedure: as §1

[3] = test system: Panc 10.05; conditions: Homo sapiens, Panc1005, Panc 10.05, Pancreatic carcinoma, 96 hrs
Procedure: as §1

[4] = test system: SK-MEL-1; conditions: Homo sapiens, SK-MEL-1, Melanoma, 96 hrs
Procedure: as §1

[5] = test system: SK-MEL 28^VEGF; conditions: Homo sapiens, Melanoma (expressing VEGF), 96 hrs
Procedure: as §1

[6] = test system: MCF-7; conditions: Homo sapiens, MCF7, MCF-7, Breast adenocarcinoma, 96 hrs
Procedure: as §1

[7] = test system: P388; conditions: Mus musculus, P388, Leukemia, 96 hrs
Procedure: as §1

[8] = test system: Panc 96; conditions: Homo sapiens, Panc 96, Pancreatic carcinoma, 96 hrs
Procedure: as §1

[9] = test system: B16 (F10); conditions: Mus musculus, Melanoma, 96 hrs
Procedure: as §1

[10] = test system: K562; conditions: Homo sapiens, K562, Leukemia myelogeneous, 96 hrs
Procedure: as §1

`CC(C)=CCC/C(C)=C/CC/C(C)=C/CN1C(=O)c2cccc(O)c2Nc2c(O)cc(O)cc21` [ECO-04601, 10-farnesyl-4,6,8-trihydroxy-dibenzodiazepin-11-one] gave an IC50 [1] of 14 µM, an IC50 [2] of 2.7 µM and an IC50 [3] of 14.2 µM. For the same compound, the IC50 [4] was 14.1 µM, the IC50 [5] was 14.3 µM and the IC50 [6] was 9.7 µM. It also gave an IC50 [7] of 10.9 µM, an IC50 [8] of 12.5 µM and an IC50 [9] of 11.4 µM. The IC50 [10] was 8.6 µM.

Reference: patent US7101872B2, “Farnesyl dibenzodiazepinone, and processes for its production” (Ecopia BioSciences, Inc., priority 2003, dated 2006)
